Test results published in patent US12194003B2, “Compositions for treating acne and dermatological conditions” (priority 2020, dated 2025).
Values joined by “and” are separate entries in the source; they are usually repeats but may differ in a detail not shown here. Identical values can stand only once. Like-named read-outs stand apart in the source and are kept apart here.

What was measured:
Primary human sebocytes = assay: Sebocyte ATP metabolism luminescence assay (Celltiter-Glo), percent luminescence reduction; type: cell-based; conditions: for % Luminescence Reduction (Repeat 1, 2, 3): niacinamide 0 μM
Protocol: The ability of various combinations of ingredients to increase ATP metabolism is evaluated via a sebocyte assay according to the following protocol. Immortalized human sebaceous gland cell lines (sebocytes) are a well-established model for studying acne. Primary human sebocytes Batch #13140680) were obtained from Celprogen™ and grown according to manufacturer's instructions. The cells were seeded at a concentration of 5000 cells per cm^2 in a tissue culture treated flask and incubated at 37° C. in a humidified incubator in the presence of 5% CO2 (all subsequent incubations were subject to these conditions). At 60-80% confluency, cells were passaged by detaching cells using TrypLE™ Express (Sigma). Cells were seeded in a black 96-well half area plate at a concentration of 5000 cells per well and allowed to equilibrate overnight at 37° C.
[…] Various concentrations of CBD (0 μM, 1 μM, 3 μM, 10 μM, 30 μM), niacinamide (0 μM, 4 μM, 10 μM, 20 μM, 40 μM), and urolithin A (0 μM, 3 μM, 10 μM, 30 μM, 100 μM) were evaluated in triplicate. The ability of each composition to increase ATP metabolism was determined using a luminescence assay (Celltiter-Glo™) according to manufacturer's instructions.
Table 11 reports the percent luminescence reductions for cells treated with each composition compared to cells that are not administered a composition of the disclosure. This value is calculated using the formula: (1−(treatment luminescence/control luminescence))*100. The luminescence measurements in this assay are proportional to the number of metabolically active cells in a sample. Cells that are metabolically active (e.g., have functioning mitochondria) consume ATP and convert luciferin to oxyluciferin.

sebocyte = assay: Sebocyte cell viability / cell death; type: cell-based, human; conditions: L-ergothioneine 1 nM to 100 μM; FIG. 6
Protocol: Sebocytes were incubated with compositions comprising CBD, niacinamide, urolithin A, or combination thereof. Various concentrations of CBD (0 μM, 1 μM, 3 μM, 10 μM, 30 μM), niacinamide (0 μM, 4 μM, 10 μM, 20 μM, 40 μM), and urolithin A (0 μM, 3 μM, 10 μM, 30 μM, 100 μM) were evaluated in triplicate. The ability of each composition to increase ATP metabolism was determined using a luminescence assay (Celltiter-Glo™) according to manufacturer's instructions.
These assays also tested the ability of the antioxidant L-ergothioneine at concentrations ranging from 1 nM to 100 μM to affect skin cell viability and influence mitochondrial function.

C=C(C)[C@@H]1CCC(C)=C[C@H]1c1c(O)cc(CCCCC)cc1O [CBD, cannabidiol]
% Luminescence Reduction (Repeat 1, 2, 3) (Primary human sebocytes; CBD 1 μM, urolithin A 0 μM): 5% and 9%

C[N+](C)(C)[C@@H](Cc1c[nH]c(=S)[nH]1)C(=O)[O-] [L-ergothioneine]
ATP metabolism (Primary human sebocytes; L-ergothioneine 1 nM to 100 μM, FIG. 6): retain viability and ATP metabolism
cell viability (sebocyte): retain viability

NC(=O)c1cccnc1 [Niacinamide, niacinamide]
Luminescence Reduction of Niacinamide Alone (Primary human sebocytes): 3.0
Luminescence Reduction of Niacinamide Alone (Primary human sebocytes; Niacinamide 4.0 μM): 3.0%
Luminescence Reduction of Niacinamide Alone (Primary human sebocytes; Niacinamide 10.0 μM): 35.0%
Luminescence Reduction of Niacinamide Alone (Primary human sebocytes; Niacinamide 20.0 μM): 52.0%
Luminescence Reduction of Niacinamide Alone (Primary human sebocytes; Niacinamide 40.0 μM): 90.7%
Luminescence Reduction of Niacinamide Alone (Primary human sebocytes; niacinamide 4.0 μM): 3.0
Luminescence Reduction of Niacinamide Alone (Primary human sebocytes; niacinamide 10.0 μM): 35.0
Luminescence Reduction of Niacinamide Alone (Primary human sebocytes; niacinamide 20.0 μM): 52.0
Luminescence Reduction of Niacinamide Alone (Primary human sebocytes; niacinamide 40.0 μM): 90.7

O=c1oc2cc(O)ccc2c2ccc(O)cc12 [Urolithin A, 3,8-dihydroxybenzo[c]chromen-6-one]
Luminescence Reduction of Urolithin A Alone (Primary human sebocytes; 30 µM): 16.7%
% Luminescence Reduction (Repeat 1, 2, 3) (Primary human sebocytes; CBD 0 μM, urolithin A 30 μM): 15% and 17% and 18%
% Luminescence Reduction (Repeat 1, 2, 3) (Primary human sebocytes; CBD 0 μM, urolithin A 100 μM): 25% and 35% and 27%
Luminescence Reduction of Urolithin A Alone (Primary human sebocytes; Urolithin A 3.0 μM): 18.7%
Luminescence Reduction of Urolithin A Alone (Primary human sebocytes; Urolithin A 10.0 μM): 13.3%
Luminescence Reduction of Urolithin A Alone (Primary human sebocytes; Urolithin A 100.0 μM): 29.0%
